Inhibition data for five molecules are collected here from patent US4891370A, “Cephalosporin derivatives as anti-inflammatory agents” (Merck & Co., Inc., priority 1981, dated 1990).

Molecules are shown by their SMILES.

The target of the assay is T1, Human Polymorphonuclear Leukocyte Elastase (Homo sapiens, UniProt P08246).
T1 construct: Crude extract of human polymorphonuclear leukocytes (PMN) containing elastase activity; endogenous in cells; host or cells: human polymorphonuclear leukocytes (crude extract)
T1 sequence (P08246 30-267): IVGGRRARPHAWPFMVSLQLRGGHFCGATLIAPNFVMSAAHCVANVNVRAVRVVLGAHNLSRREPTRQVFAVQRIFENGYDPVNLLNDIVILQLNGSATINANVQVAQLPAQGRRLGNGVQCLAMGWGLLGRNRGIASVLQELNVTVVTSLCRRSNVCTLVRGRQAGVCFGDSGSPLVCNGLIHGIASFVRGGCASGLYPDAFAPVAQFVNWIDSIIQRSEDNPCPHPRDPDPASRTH
In words: Enzyme assay for inhibition of human PMN elastase via hydrolysis of Boc-AAPAN. The format is biochemical. To be noted: % decrease in ΔOD/min at 410 mμ within 2 minutes vs control, crude PMN extract; for inhibition at 50 µg/mL: Conc. of compound 50 μg/ml. The protocol: Protocol--Enzyme Assays for the Inhibition of Human Polymorphonuclear Leukocyte Elastase Via Hydrolysis of N-t-Boc-alanyl-alanyl-prolylanaline-pnitroanilide Reagents:
0.05M TES (N-tris[hydroxymethyl]methyl-2-amino-ethanesulfonic acid) Buffer, pH 7.5.
0.2 mM N-t-Boc-alanyl-alanyl-Prolyl-Alanine-p-nitroanilide (Boc-AAPAN).
To prepare substrate, the solid (m.w. 550) was first dissolved in 10.0 ml DMSO. Buffer at pH 7.5 was then added to a final volume of 100 ml.
Crude extract of human polymorphonuclear leukocytes (PMN) containing elastase activity.
Inhibitors (cephalosporins) to be tested dissolved in DMSO just before use.
To 1.0 ml of 0.2 mM Boc-AAPAN in a cuvette, 0.01-0.1 ml of DMSO with or without inhibitor was added. After mixing, a measurement was taken at 410 mμ to detect any spontaneous hydrolysis due to presence of test compound. 0.05 Milliliters of PMN extract was then added and the ΔOD/min at 410 mμ was measured and recorded. Beckman model 35 spectrophotometer was used.
The elastase activity in the crude PMN extract may vary from one preparation to another. A control of each new batch is run, and the volume added in the assay procedure is adjusted according to activity.

`COC1(NC(=O)Cc2cccs2)C(=O)N2C(C(=O)OCC(=O)COC(=O)C(C)(C)C)=C(COC(N)=O)CSC21` (centres unmarked): the inhibition (usually how much of the control response was suppressed) at 50 µg/mL came to 37%.

The molecule `COC1(NC(=O)CSCC#N)C(=O)N2C(C(=O)OC3OC(=O)c4ccccc43)=C(CSc3nnnn3C)CSC21` (centres unmarked) registered an inhibition at 50 µg/mL of 41%.

The molecule `C=CCCOC(=O)C1=C(COC(C)=O)CSC2C(NC(=O)Cc3cccs3)C(=O)N12` (centres unmarked) had an inhibition at 50 µg/mL of 56%.

The molecule `CO[C@@]1(NC(=O)CSCC#N)C(=O)N2C(C(=O)OCOC(=O)C(C)(C)C)=C(CSc3nnnn3C)CSC21` (some centres unmarked) came in with an inhibition at 50 µg/mL of 81%. Also, at 5 µg/mL the inhibition (Conc. of compound 5 μg/ml) was 41%. In addition, 10 µg/mL produced 53% inhibition (Conc. of compound 10 μg/ml). Further, where the note is “Conc. of compound 25 μg/ml”, 25 µg/mL produced 78% inhibition.

`C=CCCOC(=O)C1=C(COC(N)=O)CSC2N1C(=O)C2(NC(=O)Cc1cccs1)OC` (centres unmarked) showed an inhibition at 50 µg/mL of 50%.
